Assay results: PubChem BioAssay (NCI)
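Results reflect a 48-hour exposure of cells in 96-well plates to compound at five concentrations. Abbreviation: GI50, concentration required for 50% inhibition of growth. TGI: total growth inhibition.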

Assays:
Experiment in all cases: DTP human tumour cell line panel, 48 h
K-562 leukemia = system: K-562 leukemia
M14 melanoma = system: M14 melanoma
MDA-MB-231 breast = system: MDA-MB-231 breast
MDA-MB-435 = system: MDA-MB-435
OVCAR-4 ovarian = system: OVCAR-4 ovarian
SK-MEL-5 melanoma = system: SK-MEL-5 melanoma
UACC-62 melanoma = system: UACC-62 melanoma
HT29 colon = system: HT29 colon
IGROV1 ovarian = system: IGROV1 ovarian
MALME-3M melanoma = system: MALME-3M melanoma

SMILES | GI50 (K-562 leukemia) | TGI (K-562 leukemia) | GI50 (M14 melanoma) | TGI (M14 melanoma) | GI50 (MDA-MB-231 breast) | TGI (MDA-MB-231 breast) | GI50 (MDA-MB-435) | TGI (MDA-MB-435) | GI50 (OVCAR-4 ovarian) | TGI (OVCAR-4 ovarian) | GI50 (SK-MEL-5 melanoma) | TGI (SK-MEL-5 melanoma) | GI50 (UACC-62 melanoma) | TGI (UACC-62 melanoma) | TGI (HT29 colon) | TGI (IGROV1 ovarian) | TGI (MALME-3M melanoma) | GI50 (IGROV1 ovarian) | GI50 (HT29 colon) | GI50 (MALME-3M melanoma)
COc1cc2cc(Oc3ccc(NC(=O)Nc4ccc(F)c(C(F)(F)F)c4)cc3)c(C)nc2cc1OCCN1CCCCC1 | 1.29 µM | 3.79 µM | 1.81 µM | 3.53 µM | 1.67 µM | 3.19 µM | 1.74 µM | 3.14 µM | 1.6 µM | 3.13 µM | 1.7 µM | 3.09 µM | 1.71 µM | 3.19 µM | – | – | – | – | – | –
CCOC(=O)c1ncoc1[C@H]1COC(C)(C)O1 | – | > 100 µM | – | > 100 µM | – | – | – | – | – | > 100 µM | – | > 100 µM | – | > 100 µM | > 100 µM | > 100 µM | > 100 µM | – | – | –
COc1cc(C2CC(c3cccc(Nc4ccncc4)c3)=NN2c2cc(Cl)cc(Cl)c2)cc(OC)c1OC (configuration not stated) | – | – | 1.75 µM | 3.36 µM | – | – | 1.61 µM | 3.15 µM | – | – | 1.8 µM | 3.24 µM | 1.69 µM | 3.18 µM | – | 3.25 µM | – | 1.69 µM | – | –
COc1ccc(/C=C2\CN(C(=O)CCN3CCC(=NO)CC3)C/C(=C\c3ccc(OC)cc3)C2=O)cc1 | 1.2 µM | > 100 µM | 2.04 µM | 4.54 µM | 2.11 µM | 4.55 µM | 1.76 µM | 3.49 µM | 3.34 µM | 17.7 µM | 1.82 µM | 3.29 µM | 1.89 µM | 4.38 µM | 4.45 µM | 4.36 µM | 7.49 µM | 1.94 µM | 2.04 µM | 2.5 µM
CC(=O)Oc1ccccc1[C@H]1CC(=O)C[C@H](c2ccccc2OC(C)=O)C12C(=O)c1ccccc1C2=O | – | 84 µM | – | 70.9 µM | – | 94.6 µM | – | 31.6 µM | – | > 100 µM | – | 48.7 µM | – | 30.9 µM | > 100 µM | > 100 µM | > 100 µM | – | – | –
